From patent US9920061B2, “Imidazo[1,5-A]pyrimidinyl carboxamide compounds and their use in the treatment of medical disorders” (Lysosomal Therapeutics Inc., priority 2016, dated 2018)
Values after ≈ are worked out from the molar mass of the structure shown. Where two headings read alike, the source gives them in different places.

Experiments:
[1] = target: T1, glucocerebrosidase (Gcase) (Homo sapiens, UniProt P04062); experiment: Glucocerebrosidase (Gcase) activation assay, 4-methylumbelliferyl-beta-D-glucopyranoside substrate, with saposin C; type: biochemical
T1 sequence (P04062 40-536): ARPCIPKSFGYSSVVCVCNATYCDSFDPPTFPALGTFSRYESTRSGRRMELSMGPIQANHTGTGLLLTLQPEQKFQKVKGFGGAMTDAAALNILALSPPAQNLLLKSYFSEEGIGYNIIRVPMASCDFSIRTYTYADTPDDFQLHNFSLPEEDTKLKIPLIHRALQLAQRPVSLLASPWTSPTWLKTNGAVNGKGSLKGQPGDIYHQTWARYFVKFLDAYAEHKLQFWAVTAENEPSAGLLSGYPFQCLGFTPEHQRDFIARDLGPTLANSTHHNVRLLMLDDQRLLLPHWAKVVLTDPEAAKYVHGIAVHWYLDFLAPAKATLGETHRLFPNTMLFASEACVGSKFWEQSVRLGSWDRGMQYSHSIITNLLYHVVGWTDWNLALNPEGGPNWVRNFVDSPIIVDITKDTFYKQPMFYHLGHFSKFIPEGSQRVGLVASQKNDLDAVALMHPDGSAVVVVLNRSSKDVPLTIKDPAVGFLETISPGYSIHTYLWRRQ
In short: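 Compounds tested at 1.0 and 0.1 μM, then in 8-point 3-fold curves, were pre-incubated 30 min at room temperature with 10 nM GCase plus 100 nM saposin C in PS/triton micelles, pH 4.7. Reaction with substrate (2 mM in micelles before mixing) ran 15 min; stopped at pH 12.5, read at ex 365/em 440 nm.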

[2] = Compound solubility in water; type: physicochemical
[3] = 0.1 μM test compound, read-out: Percent Gcase Activation 0.1 μM Test Compound
[4] = 1 μM test compound, read-out: Percent Gcase Activation 1 μM Test Compound
[5] = test compound at 0.1 μM, read-out: Percent Gcase Activation, 0.1 μM Test Compound
[6] = test compound at 1.0 μM, read-out: Percent Gcase Activation, 1 μM Test Compound

| Compound | activation at 0.1 µM [1, 3] [%] | activation at 1 µM [1, 4] [%] | solubility [2] [µg/mL] | activation at 0.1 µM [1, 5] [%] | activation at 1 µM [1, 6] [%] | solubility ([2]; in water) [µg/mL] |
| --- | --- | --- | --- | --- | --- | --- |
| Cc1cc(-c2ccc(F)cc2)nc2c(C(=O)NC(C3CC3)C3CC3)ncn12 [III-87] | > 20 | > 60 | 2.2 (≈ 6.04 µM) |  |  |  |
| COc1c(C#N)cccc1-c1cc(C)n2cnc(C(=O)NC(C3CC3)C(F)(F)F)c2n1 (stereo not drawn) [IV-67] |  |  |  | < 10 | 30 to 60 | 13.5 (≈ 31.4 µM) |
| Cc1cc(C(=O)Nc2ccccc2)nc2c(C(=O)NC(C3CC3)C(F)(F)F)ncn12 (stereo not drawn) [IV-100] |  |  |  | < 10 | < 30 | 6.2 (≈ 14.9 µM) |
| CO[C@H]1CC[C@@H](C(C)(C)NC(=O)c2ncn3c(C)cc(-c4cccnc4)nc23)CC1 [III-74] | < 10 | 30 to 60 | 19.3 (≈ 47.4 µM) |  |  |  |
| COc1cccc(-c2cc(C)n3cnc(C(=O)N[C@H](C)C(F)(F)F)c3n2)c1 [IV-21] |  |  |  | 10 to 20 | > 60 | 2.7 (≈ 7.14 µM) |
| COc1cccc(-c2cc(C)n3cnc(C(=O)N[C@H](C4CC4)C(F)(F)F)c3n2)n1 [IV-13] |  |  |  | > 20 | > 60 | 1.9 (≈ 4.69 µM) |
| Cc1cc(OC2CC(F)(F)C2)nc2c(C(=O)NC(C3CC3)C(F)(F)F)ncn12 (stereo not drawn) [III-158] | < 10 | 30 to 60 | 21.9 (≈ 54.2 µM) |  |  |  |
| Cc1cc(C)n2cnc(C(=O)NC(C)(C)CC3CC3)c2n1 [III-46] | < 10 | > 60 | 12 (≈ 41.9 µM) |  |  |  |
| Cc1cc(-c2cccc(F)c2)nc2c(C(=O)NC(C)(C)C)ncn12 [III-124] | > 20 | > 60 | 3.4 (≈ 10.4 µM) |  |  |  |
| Cc1cc(C)n2cnc(C(=O)NC(CC(C)C)C3CC3)c2n1 (stereo not drawn) [III-11] | 10 to 20 | > 60 | 32.6 (≈ 109 µM) |  |  |  |
| Cc1cc(-c2cnsc2)nc2c(C(=O)NC(C)(C)C)ncn12 [IV-55] |  |  |  | < 10 | > 60 | 8.2 (≈ 26 µM) |
| COc1cccc(-c2cc(C)n3cnc(C(=O)NC(C)(C)C)c3n2)c1 [III-127] | > 20 | > 60 | 1.4 (≈ 4.14 µM) |  |  |  |
| Cc1cc(-c2cc(C#N)co2)nc2c(C(=O)NC(C3CC3)C(F)(F)F)ncn12 (stereo not drawn) [IV-81] |  |  |  | 10 to 20 | > 60 | 1 (≈ 2.57 µM) |
| Cc1cc(-c2cc(F)cc(F)c2)nc2c(C(=O)N[C@@H](C)C3CC3)ncn12 [III-111] | > 20 | > 60 | 1.3 (≈ 3.65 µM) |  |  |  |
| COc1cccc(-c2cc(C)n3cnc(C(=O)NC(C4CC4)C4CC4)c3n2)c1 [III-172] | > 20 | > 60 | 4.2 (≈ 11.2 µM) |  |  |  |
| Cc1cc(-c2ccc3ncoc3c2)nc2c(C(=O)N[C@@H](C)C3CC3)ncn12 [III-129] | < 10 | > 60 | 6.1 (≈ 16.9 µM) |  |  |  |
| Cc1cc(-c2cccc(F)c2)nc2c(C(=O)NC(C3CC3)C(F)(F)F)ncn12 (stereo not drawn) [III-163] | > 20 | > 60 | 0.4 (≈ 1.02 µM) |  |  |  |
| Cc1cc(-c2ccccc2CC#N)nc2c(C(=O)NC(C3CC3)C(F)(F)F)ncn12 (stereo not drawn) [IV-40] |  |  |  | < 10 | 30 to 60 | 15.4 (≈ 37.3 µM) |
| Cc1cc(-c2cccc(Cl)c2)nc2c(C(=O)NC(C)(C)C(F)(F)F)ncn12 [III-185] | > 20 | > 60 | 3.7 (≈ 9.32 µM) |  |  |  |
| Cc1cc(-c2ccc(F)cc2)nc2c(C(=O)N[C@@H](C)C3CCC3)ncn12 [III-79] | 10 to 20 | > 60 | 3 (≈ 8.51 µM) |  |  |  |

| Compound | activation at 0.1 µM [1, 3] [%] | activation at 1 µM [1, 4] [%] | solubility [2] [µg/mL] | activation at 0.1 µM [1, 5] [%] | activation at 1 µM [1, 6] [%] | solubility ([2]; in water) [µg/mL] |
| --- | --- | --- | --- | --- | --- | --- |
| Cc1cc(-c2ccns2)nc2c(C(=O)N[C@@H](C3CC3)C(F)(F)F)ncn12 [IV-8] |  |  |  | 10 to 20 | > 60 | 19.7 (≈ 51.7 µM) |
| Cc1cc(-c2cc(F)ccc2C#N)nc2c(C(=O)NC(C3CC3)C(F)(F)F)ncn12 (stereo not drawn) [IV-108] |  |  |  | > 20 | > 60 | 0.7 (≈ 1.68 µM) |
| Cc1cc(-c2occc2C#N)nc2c(C(=O)NC(C3CC3)C(F)(F)F)ncn12 (stereo not drawn) [IV-82] |  |  |  | > 20 | > 60 | 1.9 (≈ 4.88 µM) |
| COc1ccc(F)c(-c2cc(C)n3cnc(C(=O)NC(C)C(F)(F)F)c3n2)c1 (stereo not drawn) [IV-104] |  |  |  | > 20 | > 60 | 0.7 (≈ 1.77 µM) |
| CCc1cc(-c2cccc(OC)c2)nc2c(C(=O)N[C@@H](C)C3CC3)ncn12 [III-161] | > 20 | > 60 | 1.8 (≈ 4.94 µM) |  |  |  |
| Cc1cc(N2CCCN(C(C)C)C2=O)nc2c(C(=O)NC(C3CC3)C(F)(F)F)ncn12 (stereo not drawn) [IV-89] |  |  |  | < 10 | < 30 | 25.6 (≈ 58.4 µM) |
| Cc1cc(-c2cccc(F)c2)nc2c(C(=O)N[C@H](C)C3CC3)ncn12 [III-94] | 10 to 20 | > 60 | 8.4 (≈ 24.8 µM) |  |  |  |
| Cc1cc(C)n2cnc(C(=O)NC(c3ccc(F)cc3)C(F)(F)F)c2n1 (stereo not drawn) [III-16] | 10 to 20 | > 60 | 24.3 (≈ 66.3 µM) |  |  |  |
| CCOc1cc(C)n2cnc(C(=O)NC(c3ccc(F)cc3)C(F)(F)F)c2n1 (stereo not drawn) [III-21] | > 20 | > 60 | 1.1 (≈ 2.78 µM) |  |  |  |
| Cc1cc(-c2ccn3ccnc3c2)nc2c(C(=O)N[C@@H](C)C3CC3)ncn12 [III-131] | < 10 | < 30 | 2.8 (≈ 7.77 µM) |  |  |  |
| C#Cc1ccc(NC(=O)c2ncn3c(C4CCCC4)cc(C)nc23)cc1 [III-1] | 10 to 20 | 30 to 60 | 0.2 (≈ 0.581 µM) |  |  |  |
| Cc1cc(-c2cccc3c2OCO3)nc2c(C(=O)N[C@@H](C)C3CC3)ncn12 [IV-30] |  |  |  | > 20 | > 60 | 0.5 (≈ 1.37 µM) |
| Cc1sc(C#N)cc1-c1cc(C)n2cnc(C(=O)NC(C3CC3)C(F)(F)F)c2n1 (stereo not drawn) [IV-95] |  |  |  | > 20 | > 60 | 2.5 (≈ 5.96 µM) |
| Cc1cc(-c2cccc(OC(F)(F)F)n2)nc2c(C(=O)N[C@@H](C)C3CC3)ncn12 [IV-101] |  |  |  | > 20 | > 60 | 1.5 (≈ 3.7 µM) |
| Cc1cc(-c2ccnc(Cl)c2)nc2c(C(=O)N[C@@H](C)C3CC3)ncn12 [III-106] | < 10 | 30 to 60 | 12.8 (≈ 36 µM) |  |  |  |
| COc1cccc(-c2cc(C)n3cnc(C(=O)NC(C)C(F)(F)F)c3n2)c1 (stereo not drawn) [III-167] | > 20 | > 60 | 2.9 (≈ 7.66 µM) |  |  |  |
| Cc1cc(-c2cccc3nccn23)nc2c(C(=O)NC(C3CC3)C(F)(F)F)ncn12 (stereo not drawn) [IV-25] |  |  |  | < 10 | < 30 | 3.3 (≈ 7.96 µM) |
| CCCCO[C@H]1C[C@H]2CC[C@@H](C1)[C@@H]2NC(=O)c1ncn2c(COC)cc(C)nc12 [IV-3] |  |  |  | < 10 | 30 to 60 | 15.3 (≈ 38.2 µM) |
| CCc1cc(N2CCC(C)(C)C2=O)nc2c(C(=O)NC(C3CC3)C(F)(F)F)ncn12 (stereo not drawn) [IV-107] |  |  |  | 10 to 20 | > 60 | 29.6 (≈ 69.9 µM) |
| COc1ccccc1[C@H](C)NC(=O)c1ncn2c(C)cc(-c3ccc(F)cc3)nc12 [III-30] | 10 to 20 | > 60 | 1.3 (≈ 3.21 µM) |  |  |  |
